Measurements reported in ChEMBL document CHEMBL3137667, “[Drug-induced liver injury; fourteenth updated edition of the bibliographic database of liver injuries and related drugs]” (Gastroenterol Clin Biol, 2004).

Assays:
[1] = Highest frequency of moderate liver toxicity observed during clinical trials, expressed as a percentage. [column '% BIOL' in source]; details: human
[2] = Highest frequency of acute liver toxicity observed during clinical trials, expressed as a percentage. [column '% AIGUE' in source]; details: human
[3] = Times to onset, minimal and maximal, observed in the indexed observations. [column 'DELAI' in source]; details: human
[4] = human, serum
[5] = human, serum; remark: listed apart in the source
[6] = human
[7] = human; remark: listed apart in the source
[8] = human; remark: listed apart in the source
[9] = human, serum, 4383 h
[10] = human; remark: listed apart in the source
[11] = human; remark: listed apart in the source
[12] = human; remark: listed apart in the source
[13] = human; remark: listed apart in the source
[14] = human; remark: listed apart in the source
[15] = human; remark: listed apart in the source
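Wherever Hepatotoxicity (association with vascular disease) is given: count of indexed literature references reporting vascular liver injury in humans, e.g. peliosis hepatitis, hepatic veno-occlusive disease or Budd-Chiari syndrome.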
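Wherever Hepatotoxicity (benign tumour) is given: value is a count of indexed literature references citing a benign tumour confirmed by histopathology.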
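Wherever Hepatotoxicity (choleostasis) is given: human cholestatic liver injury, shown by histopathology or by peak ALT or AST elevation over alkaline phosphatase ratio below 2, value counts indexed literature reports.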
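Wherever Hepatotoxicity (chronic liver disease) is given: chronic liver injury confirmed by histopathology or persistently raised serum aminotransferase activity beyond 6 months, value given as the count of indexed literature references.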
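Wherever Hepatotoxicity (cirrhosis) is given: value is a count of indexed literature references reporting cirrhosis confirmed by histopathology.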
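Wherever Hepatotoxicity (cytolytic) is given: human cytolytic liver injury, shown by histopathology or by a ratio above 5 of peak ALT or AST elevation to alkaline phosphatase elevation, value counts indexed references.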
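Wherever Hepatotoxicity (granulomatous hepatitis) is given: value is a count of indexed literature references reporting granulomatous liver disease confirmed by histopathology.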
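Wherever Hepatotoxicity (malignant tumour) is given: malignant tumour confirmed by histopathology, value gives the count of indexed literature references reporting it.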
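Wherever Hepatotoxicity (severe hepatitis) is given: human clinical data: severe hepatitis, meaning potentially life-threatening liver failure or clinically observed cases, the value counts how many indexed literature references report it.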
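Wherever Hepatotoxicity (steatosis) is given: steatosis confirmed by histopathology, value is the count of indexed references.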

Row | Compound | Hepatotoxicity (moderate) [1] [%] | Hepatotoxicity (acute) [2] [%] | Hepatotoxicity (time to onset) [3] | Hepatotoxicity (moderate) [4] | Hepatotoxicity (acute) [5] | Hepatotoxicity (cytolytic) [6] | Hepatotoxicity (choleostasis) [7] | Hepatotoxicity (severe hepatitis) [8] | Hepatotoxicity (chronic liver disease) [9] | Hepatotoxicity (cirrhosis) [10] | Hepatotoxicity (granulomatous hepatitis) [11] | Hepatotoxicity (association with vascular disease) [12] | Hepatotoxicity (steatosis) [13] | Hepatotoxicity (malignant tumour) [14] | Hepatotoxicity (benign tumour) [15] | Hepatotoxicity (moderate) ([1]; Liver) [%] | Hepatotoxicity (acute) ([2]; Liver) [%] | Hepatotoxicity (severe hepatitis) ([8]; Liver)
1 | CCN(CC)CCN1C(=O)CN=C(c2ccccc2F)c2cc(Cl)ccc21 [FLURAZEPAM] | 0 | 0 | 2 weeks - 6 months | 0 | 3 | 0 | 3 | 0 | 0 | 0 | 0 | 0 | 1 | 0 | 0 | – | – | –
2 | Nc1ccn([C@@H]2O[C@H](CO)[C@@H](O)C2(F)F)c(=O)n1 [GEMCITABINE] | 90.9 | 45.5 | 1 cure - 7 cures | 13 | 12 | 6 | 3 | 2 | 0 | 0 | 0 | 2 | 0 | 0 | 0 | – | – | –
3 | CO/N=C1\CN(c2nc3c(cc2F)c(=O)c(C(=O)O)cn3C2CC2)CC1CN (stereo not given) [GEMIFLOXACIN] | 0.3 | 0 | 6 days | 4 | 0 | 0 | 0 | 0 | 0 | 0 | 0 | 0 | 0 | 0 | 0 | – | – | –
4 | CN1C2CCCC1CC(NC(=O)c1nn(C)c3ccccc13)C2 (stereo not given) [GRANISETRON] | 7.9 | 0 | 1 week | 2 | 0 | 0 | 0 | 0 | 0 | 0 | 0 | 0 | 0 | 0 | 0 | – | – | –
5 | N=C(N)NCC1COc2ccccc2O1 (stereo not given) [GUANOXAN] | 30 | 10 | 2 months - 1 year | 2 | 2 | 1 | 2 | 1 | 0 | 0 | 0 | 0 | 0 | 0 | 0 | – | – | –
6 | NN [HYDRAZINE] | 0 | 0 | 3.5 months | 0 | 1 | 1 | 0 | 1 | 0 | 0 | 0 | 0 | 0 | 0 | 0 | – | – | –
7 | C[C@]12CCC(=O)C=C1CC[C@@H]1[C@@H]2[C@@H](O)C[C@@]2(C)[C@H]1CC[C@]2(O)C(=O)CO [HYDROCORTISONE] | 25 | 0 | 2 months | 1 | 0 | 0 | 0 | 1 | 0 | 0 | 0 | 0 | 10 | 0 | 0 | – | – | –
8 | CCN(CCO)CCCC(C)Nc1ccnc2cc(Cl)ccc12 (stereo not given) [HYDROXYCHLOROQUINE] | 11.1 | 5.3 | 1 year | 1 | 2 | 1 | 1 | 1 | 0 | 0 | 0 | 0 | 0 | 0 | 0 | – | – | –
9 | CC(C)Cc1ccc(CC(=O)O)cc1 [IBUFENAC] | 40 | 5 | 4 months | 2 | 3 | 3 | 1 | 1 | 0 | 0 | 0 | 0 | 0 | 0 | 0 | – | – | –
10 | O=c1[nH]c(=O)n([C@H]2C[C@H](O)[C@@H](CO)O2)cc1I [IDOXURIDINE] | 3.6 | 0 | 1 week - 2 weeks | 3 | 1 | 0 | 1 | 0 | 0 | 0 | 0 | 0 | 0 | 0 | 0 | – | – | –
11 | CCN(CC)CCn1c(-c2ccccc2)noc1=N [IMOLAMINE] | 0 | 0 | 2 months | 0 | 0 | 0 | 0 | 0 | 1 | 0 | 0 | 0 | 0 | 0 | 0 | – | – | –
12 | CC1Cc2ccccc2N1NC(=O)c1ccc(Cl)c(S(N)(=O)=O)c1 (stereo not given) [INDAPAMIDE] | – | – | 6 months - 5 years | 1 | 4 | 3 | 1 | – | 0 | 0 | 0 | 0 | 0 | 0 | 0 | 0 | 0 | 1
13 | C[C@H](O)C(=O)Nc1c(I)c(C(=O)NC(CO)CO)c(I)c(C(=O)NC(CO)CO)c1I [IOPAMIDOL] | 0 | 0 | 0.021 days | 0 | 1 | 1 | 0 | 1 | 0 | 0 | 0 | 0 | 0 | 0 | 0 | – | – | –
14 | CCC(Cc1c(I)cc(I)c(N)c1I)C(=O)O (stereo not given) [IOPANOIC ACID] | 0 | 0 | 1 week | 0 | 1 | 1 | 0 | 0 | 0 | 0 | 0 | 0 | 0 | 0 | 0 | – | – | –
15 | COCC(=O)Nc1c(I)c(C(=O)NCC(O)CO)c(I)c(C(=O)N(C)CC(O)CO)c1I (stereo not given) [IOPROMIDE] | 0 | 0 | < 1 days | 0 | 1 | 1 | 0 | 0 | 0 | 0 | 0 | 0 | 0 | 0 | 0 | – | – | –
